In US5972950A, “1,2-diarylmethylene derivatives, their methods of preparation and their uses in therapeutics” (Laboratories UPSA, priority 1996, dated 1999):

Assays:
[1] = system: pain response in kaolin arthritis; experiment: arthritis with kaolin (analgesic activity) in rats; type: in vivo; conditions: rat, oral, pain response 5 hours 30 minutes after administration, n=10
Description: The analgesic activity is evaluated in rats by the test of arthritis with kaolin. Thirty minutes after intra-articular administration of an aqueous 10% suspension of kaolin, the product is administered orally at a rate of 1 ml/100 g (n=10 animals per dose).

COX-2 = experiment: inhibition of COX-2 enzymatic activity (PGE2 by EIA); type: biochemical; conditions: purified enzyme from ewe placenta, mean ± standard deviation, 4 determinations
Description: (§1) Inhibition Of The COX-1 and COX-2 Enzymatic Activities The molecule studied is preincubated for 10 minutes at 25° C. with 2 U of COX-1 (purified enzyme from ram seminal vesicles) or 1 U of COX-2 (purified enzyme from ewe placenta). Arachidonic acid (6 μM for COX-1, 4, μM for COX-2) is added to the reaction medium and incubation is carried out for 5 minutes at 25° C. When incubation has ended, the enzymatic reaction is stopped by the addition of 1 N HCl and the PGE2 produced is determined by EIA. The results are expressed as the percentage inhibition of the COX-1 and COX-2 enzymatic activities and correspond to mean (±) standard deviations from the average of 4 determinations.

COX-1 = experiment: inhibition of COX-1 enzymatic activity (PGE2 by EIA); type: biochemical; conditions: purified enzyme from ram seminal vesicles, mean ± standard deviation, 4 determinations
Description: as §1

[2] = system: carrageenan-induced paw oedema; experiment: oedema with carrageenan (anti-inflammatory activity) in rats; type: in vivo; conditions: rat, oral, oedema volume 3 hours after carrageenan, n=6
Description: Anti-Inflammatory Activity
The anti-inflammatory activity is evaluated in rats by the test of oedema with carrageenan. The product is administered orally at a rate of 2.5 ml/100 g (n=6 animals per dose) 2 hours 30 minutes after a water overload taken orally (2.5 ml/ 100 g). One hour after administration of the product, the oedema is induced by plantar subcutaneous injection of aqueous 2% carrageenan solution.

Structure (SMILES)	Analgesic activity % inhibition ([1]; 30 mg/kg)	% inhibition of COX-2 activity (COX-2; 10^-5 M)	% inhibition of COX-2 activity (COX-2; 10^-7 M)	% inhibition of COX-1 activity (COX-1; 10^-5 M)	% inhibition of COX-1 activity (COX-1; 10^-7 M)	Anti-inflammatory activity % inhibition ([2]; 30 mg/kg)	Analgesic activity % inhibition ([1]; 100 mg/kg)	Anti-inflammatory activity % inhibition ([2]; 100 mg/kg)
CCOC(=O)/C(CCO)=C(/c1ccc(S(C)(=O)=O)cc1)c1cc(Cl)cc(Cl)c1 [Example 14, Ethyl (Z)-3-(3,5-dichlorophenyl)-3-(4-methanesulphonylphenyl)-2-(2-hydroxyethyl)prop-2-enoate]	45.8 ± 10.9%	80 ± 2%	16 ± 9%	0 ± 0%	0 ± 0%	28.9 ± 4.5%		
CS(=O)(=O)c1ccc(/C(=C(\CCO)C(=O)[O-])c2ccc(Cl)c(Cl)c2)cc1.[Na+] [Example 27, Sodium (Z)-3-(3,4-dichlorophenyl)-3-(4-methanesulphonylphenyl)-2-(2-hydroxyethyl)prop-2-enoate]							63.6 ± 13.2%	32.4 ± 8.2%
